Source: patent publication US6610846B1, “Heteroaromatic glucokinase activators” (Hoffman-La Roche Inc., priority 1999, dated 2003)

Legend:
C57BL/6J mice = experiment: Glucokinase activator in vivo screen (blood glucose after oral dosing); details: administered orally, 50 mg/kg, C57BL/6J mice fasted two hours; decrease in blood glucose compared to vehicle over six hours (Example B)
Procedure: Glucokinase Activator In Vivo Screen Protocol
C57BL/6J mice are orally dosed via gavage with Glucokinase (GK) activator at 50 mg/kg body weight following a two hour fasting period. Blood glucose determinations are made five times during the six hour post-dose study period. Mice (n=6) are weighed and fasted for a two hour period prior to oral treatment.

melting point [°C] | Structure (SMILES) | glucokinase activator in vivo activity (C57BL/6J mice)
168 to 170 | O=C(Nc1nccs1)C(CC1CCCC1)c1ccc(OC(F)(F)F)cc1 (centres unmarked) [Example 112, 3-Cyclopentyl-N-thiazol-2-yl-2-(4-trifluoromethoxy-phenyl)-propionamide] | excellent glucokinase activator in vivo activity
157 to 160 | COCS(=O)(=O)c1ccc(C(CC2CCCC2)C(=O)Nc2nccs2)cc1 (centres unmarked) [Example 125, 3-Cyclopentyl-2-(4-methoxymethanesulfonyl-phenyl)-N-thiazol-2-yl-propionamide] | excellent glucokinase activator in vivo activity
83 to 87 | Cc1csc(NC(=O)[C@H](CC2CCCC2)c2ccc(S(C)(=O)=O)cc2)n1 [Example 128, 3-Cyclopentyl-2(R)-(4-methanesulfonyl-phenyl)-N-(4-methyl-thiazol-2-yl)-propionamide] | excellent glucokinase activator in vivo activity
81 to 85 | Cc1cnc(NC(=O)[C@H](CC2CCCC2)c2ccc(S(C)(=O)=O)cc2)s1 [Example 129, 3-Cyclopentyl-2(R)-(4-methanesulfonyl-phenyl)-N-(5-methyl-thiazol-2-yl)-propionamide] | excellent glucokinase activator in vivo activity
76 to 79 | CS(=O)(=O)c1ccc(C(CC2CCCC2)C(=O)Nc2ncc(Cl)s2)cc1 (centres unmarked) [Example 130, N-(5-Chloro-thiazol-2-yl)-3-cyclopentyl-2-(4-methanesulfonyl-phenyl)-propionamide] | excellent glucokinase activator in vivo activity
83 to 88 | CS(=O)(=O)c1ccc([C@@H](CC2CCCC2)C(=O)Nc2ncc(Cl)s2)cc1 [Example 131, N-(5-Chloro-thiazol-2-yl)-3-cyclopentyl-2(R)-(4-methanesulfonyl-phenyl)-propionamide] | excellent glucokinase activator in vivo activity
85 to 90 | CS(=O)(=O)c1ccc([C@@H](CC2CCCC2)C(=O)Nc2ccncn2)cc1C(F)(F)F [Example 157(A), 3-Cyclopentyl-2(R)-(4-methanesulfonyl-3-trifluoromethyl-phenyl)-N-pyrimidin-4-yl-propionamide] | excellent glucokinase activator in vivo activity
